Reference: US11919859B2, “Herbicidal mixture, composition and method” (FMC Corporation, priority 2017, dated 2024)

How the values were obtained:
[1] = tested on: Asian sprangletop (LEPCH, Leptochloa chinensis); test: Test A flooded greenhouse test, Asian sprangletop; format: in vivo; settings: 14 d
Description: (§1) Seeds of Asian sprangletop (LEPCH, Leptochloa chinensis), smallflower umbrella sedge (CYPDI, Cyperus difformis), monochoria (MOOVA, Monochoria vaginalis) and ducksalad (HETLI, Heteranthera limosa) were sown on the soil surface in four separate quadrants of 16-cm tubs filled with steam pasteurized Tama soil. Simultaneously, plantings of barnyardgrass (ECHCG, Echinochloa crus-galli), japonica rice (ORYSA, Oryza sativa) and late watergrass (ECHPH, Echinochloa phyllopogon) were established in separate “plug” flats. Plants were grown in a greenhouse using supplemental lighting to maintain a photoperiod of approximately 16 h; daytime and nighttime temperatures were approximately 27-30° C. and 24-27° C., respectively. After 8 d, barnyardgrass, rice and late watergrass plants were transplanted in 3 quadrants of separate tub, and the water level was adjusted to a final depth of 3 cm. Herbicide application of Cmpd. No. 1 and florpyrauxifen-benzyl (CAS Registry No. 1390661-72-9; 439.2 g/mol) timing was targeted at the 2.0 to 2.5 leaf stage and the plants were treated with test chemicals formulated in a non-phytotoxic solvent. Treated plants and controls were maintained in a greenhouse for 14 d, after which time all species were compared to controls and visually evaluated. Plant response ratings are summarized in Table A, and are based on a scale of 0 to 100 where 0 is no effect and 100 is complete control and is the mean of duplicate ratings. A dash (-) response means no test result.
(§2) Colby's Equation was used to determine the herbicidal effects expected from the mixtures. Colby's Equation (Colby, S. R. “Calculating Synergistic and Antagonistic Responses of Herbicide Combinations,” Weeds 1967 15(1), pp 20-22) calculates the expected additive effect of herbicidal mixtures and for two active ingredients is of the form: Pa+b=Pa+Pb−(PaPb/100) wherein Pa+b is the percentage effect of the mixture expected from additive contribution of the individual components: • Pa is the observed percentage effect of the first active ingredient at the same use rate as in the mixture, and • Pb is the observed percentage effect of the second active ingredient at the same use rate as in the mixture. The results and additive effects expected from Colby's Equation are listed in Table A. Application rates are grams of active ingredient per hectare (g a.i./ha). “Obsd.” is the observed effect and “Exp.” is expected effect calculated from Colby's Equation.

[2] = tested on: smallflower umbrella sedge (CYPDI, Cyperus difformis); test: Test A flooded greenhouse test, smallflower umbrella sedge; format: in vivo; settings: 14 d
Description: as §1, §2

[3] = tested on: monochoria (MOOVA, Monochoria vaginalis); test: Test A flooded greenhouse test, monochoria; format: in vivo; settings: 14 d
Description: as §1, §2

[4] = tested on: barnyardgrass (ECHCG, Echinochloa crus-galli); test: Test A flooded greenhouse test, barnyardgrass; format: in vivo; settings: 14 d
Description: as §1, §2

[5] = tested on: ducksalad (HETLI, Heteranthera limosa); test: Test A flooded greenhouse test, ducksalad; format: in vivo; settings: 14 d
Description: as §1, §2

[6] = tested on: late watergrass (ECHPH, Echinochloa phyllopogon); test: Test A flooded greenhouse test, late watergrass; format: in vivo; settings: 14 d
Description: as §1, §2

[7] = tested on: japonica rice (ORYSA, Oryza sativa); test: Test A flooded greenhouse test, japonica rice (crop); format: in vivo
Description: as §1
Colby's Equation was used to determine the herbicidal effects expected from the mixtures. […] “Obsd.” is the observed effect and “Exp.” is expected effect calculated from Colby's Equation.

[8] = tested on: foxtail, green (green foxtail, Setaria viridis); test: Test B postemergence, green foxtail; format: in vivo; settings: approximately 10 d
Description: (§3) Seeds of plant species selected from barnyardgrass (Echinochloa crus-galli), kochia (Kochia scoparia), ragweed (common ragweed, Ambrosia elatior), Ryegrass, Italian (Italian ryegrass, Lolium multiflorum), foxtail, green (green foxtail, Setaria viridis), and pigweed (Amaranthus retroflexus) were planted into a blend of loam soil and sand and treated preemergence with a directed soil spray using test chemicals formulated in a non-phytotoxic solvent mixture which included a surfactant.
(§4) At the same time, plants selected from these weed species and also wheat (Triticum aestivum), corn (Zea mays), blackgrass (Alopecurus myosuroides), and galium (catchweed bedstraw, Galium aparine) were planted in pots containing the same blend of loam soil and sand and treated with postemergence applications of test chemicals formulated in the same manner. Plants ranged in height from 2 to 10 cm and were in the one- to two-leaf stage for the postemergence treatment. Treated plants and untreated controls were maintained in a greenhouse for approximately 10 d, after which time all treated plants were compared to untreated controls and visually evaluated for injury. Plant response ratings, summarized in Table B, are based on a 0 to 100 scale where 0 is no effect and 100 is complete control. A dash (-) response means no test result.

[9] = tested on: foxtail, green (green foxtail, Setaria viridis); test: Test B preemergence, green foxtail; format: in vivo; settings: approximately 10 d
Description: as §3, §4

[10] = tested on: barnyardgrass (Echinochloa crus-galli); test: Test C flooded paddy test, barnyardgrass; format: in vivo; settings: Flood; 250 g ai/ha; 13 to 15 d
Protocol: (§5) Test C Plant species in the flooded paddy test selected from rice (Oryza sativa), sedge, umbrella (small-flower umbrella sedge, Cyperus difformis), ducksalad (Heteranthera limosa), and barnyardgrass (Echinochloa crus-galli) were grown to the 2-leaf stage for testing. At time of treatment, test pots were flooded to 3 cm above the soil surface, treated by application of test compounds directly to the paddy water, and then maintained at that water depth for the duration of the test. Treated plants and controls were maintained in a greenhouse for 13 to 15 d, after which time all species were compared to controls and visually evaluated. Plant response ratings, summarized in Table C, are based on a scale of 0 to 100 where 0 is no effect and 100 is complete control. A dash (-) response means no test result.

[11] = tested on: Ryegrass, Italian (Italian ryegrass, Lolium multiflorum); test: Test B postemergence, Italian ryegrass; format: in vivo; settings: approximately 10 d
Description: as §3, §4

[12] = tested on: blackgrass (Alopecurus myosuroides); test: Test B postemergence, blackgrass; format: in vivo; settings: approximately 10 d
Description: as §3, §4

[13] = tested on: barnyardgrass (Echinochloa crus-galli); test: Test B postemergence, barnyardgrass; format: in vivo; settings: approximately 10 d
Description: as §3, §4

[14] = tested on: corn (Zea mays); test: Test B postemergence, corn; format: in vivo; settings: approximately 10 d
Description: as §3, §4

[15] = tested on: barnyardgrass (Echinochloa crus-galli); test: Test B preemergence, barnyardgrass; format: in vivo; settings: approximately 10 d
Description: as §3, §4

[16] = tested on: rice (Oryza sativa); settings: in vivo
Protocol: as §5

[17] = tested on: sedge, umbrella (small-flower umbrella sedge, Cyperus difformis); test: Test C flooded paddy test, umbrella sedge; format: in vivo; settings: Flood; 250 g ai/ha; 13 to 15 d
Protocol: as §5

[18] = tested on: kochia (Kochia scoparia); test: Test B preemergence, kochia; format: in vivo; settings: approximately 10 d
Description: as §3, §4

[19] = tested on: ragweed (common ragweed, Ambrosia elatior); test: Test B postemergence, ragweed; format: in vivo; settings: approximately 10 d
Description: as §3, §4

[20] = tested on: pigweed (Amaranthus retroflexus); test: Test B postemergence, pigweed; format: in vivo; settings: approximately 10 d
Description: as §3, §4

[21] = tested on: kochia (Kochia scoparia); test: Test B postemergence, kochia; format: in vivo; settings: approximately 10 d
Description: as §3, §4

[22] = tested on: galium (catchweed bedstraw, Galium aparine); test: Test B postemergence, galium; format: in vivo; settings: approximately 10 d
Description: as §3, §4

[23] = tested on: pigweed (Amaranthus retroflexus); test: Test B preemergence, pigweed; format: in vivo; settings: approximately 10 d
Description: as §3, §4

[24] = tested on: wheat (Triticum aestivum); test: Test B postemergence, wheat; format: in vivo; settings: approximately 10 d
Description: as §3, §4

[25] = tested on: Ryegrass, Italian (Italian ryegrass, Lolium multiflorum); test: Test B preemergence, Italian ryegrass; format: in vivo; settings: approximately 10 d
Description: as §3, §4

[26] = tested on: ducksalad (Heteranthera limosa); test: Test C flooded paddy test, ducksalad; format: in vivo; settings: Flood; 250 g ai/ha; 13 to 15 d
Protocol: as §5

[27] = tested on: ragweed (common ragweed, Ambrosia elatior); test: Test B preemergence, ragweed; format: in vivo; settings: approximately 10 d
Description: as §3, §4

[28] = florpyrauxifen-benzyl 2 g a.i./ha alone
[29] = florpyrauxifen-benzyl 4 g a.i./ha alone

CN1C[C@H](c2cccc(C(F)(F)F)c2)[C@@H](C(=O)Nc2ccccc2F)C1=O [Cmpd. No. 1]
LEPCH Obsd. plant response rating (0 to 100) ([1]; Cmpd. No. 1 50 g a.i./ha alone): 75
LEPCH Obsd. plant response rating (0 to 100) ([1]; Cmpd. No. 1 75 g a.i./ha alone): 85
CYPDI Obsd. plant response rating (0 to 100) ([2]; Cmpd. No. 1 50 g a.i./ha alone): 0
CYPDI Obsd. plant response rating (0 to 100) ([2]; Cmpd. No. 1 75 g a.i./ha alone): 0
MOOVA Obsd. plant response rating (0 to 100) ([3]; Cmpd. No. 1 50 g a.i./ha alone): 70
MOOVA Obsd. plant response rating (0 to 100) ([3]; Cmpd. No. 1 75 g a.i./ha alone): 70
ECHCG Obsd. plant response rating (0 to 100) ([4]; Cmpd. No. 1 50 g a.i./ha alone): 70
ECHCG Obsd. plant response rating (0 to 100) ([4]; Cmpd. No. 1 75 g a.i./ha alone): 70
HETLI Obsd. plant response rating (0 to 100) ([5]; Cmpd. No. 1 50 g a.i./ha alone): 70
HETLI Obsd. plant response rating (0 to 100) ([5]; Cmpd. No. 1 75 g a.i./ha alone): 70
ECHPH Obsd. plant response rating (0 to 100) ([6]; Cmpd. No. 1 50 g a.i./ha alone): 75
ECHPH Obsd. plant response rating (0 to 100) ([6]; Cmpd. No. 1 75 g a.i./ha alone): 85
ORYSA Obsd. plant response rating (0 to 100) ([7]; in vivo): 0

Cc1cc([C@H]2CN(C)C(=O)[C@@H]2C(=O)Nc2cccc(F)c2F)cc(OC(F)F)n1 [Cmpd. No. 4]
Foxtail, Green plant response rating (0 to 100) ([8]; 31 g ai/ha): 70
Foxtail, Green plant response rating (0 to 100) ([8]; 125 g ai/ha): 90
Foxtail, Green plant response rating (0 to 100) ([9]; 31 g ai/ha): 100
Foxtail, Green plant response rating (0 to 100) ([9]; 125 g ai/ha): 100
Barnyardgrass plant response rating (0 to 100) [10]: 85
Ryegrass, Italian plant response rating (0 to 100) ([11]; 31 g ai/ha): 30
Ryegrass, Italian plant response rating (0 to 100) ([11]; 125 g ai/ha): 70
Blackgrass plant response rating (0 to 100) ([12]; 31 g ai/ha): 60
Blackgrass plant response rating (0 to 100) ([12]; 125 g ai/ha): 70
Barnyardgrass plant response rating (0 to 100) ([13]; 31 g ai/ha): 80
Barnyardgrass plant response rating (0 to 100) ([13]; 125 g ai/ha): 90
Corn plant response rating (0 to 100) ([14]; 31 g ai/ha): 60
Corn plant response rating (0 to 100) ([14]; 125 g ai/ha): 80
Barnyardgrass plant response rating (0 to 100) ([15]; 31 g ai/ha): 100
Barnyardgrass plant response rating (0 to 100) ([15]; 125 g ai/ha): 100
Rice plant response rating (0 to 100) [16]: 30
Sedge, Umbrella plant response rating (0 to 100) [17]: 0
Kochia plant response rating (0 to 100) ([18]; 31 g ai/ha): 0
Kochia plant response rating (0 to 100) ([18]; 125 g ai/ha): 80
Ragweed plant response rating (0 to 100) ([19]; 31 g ai/ha): 0
Ragweed plant response rating (0 to 100) ([19]; 125 g ai/ha): 60
Pigweed plant response rating (0 to 100) ([20]; 31 g ai/ha): 20
Pigweed plant response rating (0 to 100) ([20]; 125 g ai/ha): 60
Kochia plant response rating (0 to 100) ([21]; 31 g ai/ha): 0
Kochia plant response rating (0 to 100) ([21]; 125 g ai/ha): 20
Galium plant response rating (0 to 100) ([22]; 31 g ai/ha): 0
Galium plant response rating (0 to 100) ([22]; 125 g ai/ha): 60
Pigweed plant response rating (0 to 100) ([23]; 31 g ai/ha): 40
Pigweed plant response rating (0 to 100) ([23]; 125 g ai/ha): 90
Wheat plant response rating (0 to 100) ([24]; 31 g ai/ha): 40
Wheat plant response rating (0 to 100) ([24]; 125 g ai/ha): 70
Ryegrass, Italian plant response rating (0 to 100) ([25]; 31 g ai/ha): 30
Ryegrass, Italian plant response rating (0 to 100) ([25]; 125 g ai/ha): 90
Ducksalad plant response rating (0 to 100) [26]: 100
Ragweed plant response rating (0 to 100) ([27]; 31 g ai/ha): 0
Ragweed plant response rating (0 to 100) ([27]; 125 g ai/ha): 20

COc1c(Cl)ccc(-c2nc(C(=O)OCc3ccccc3)c(Cl)c(N)c2F)c1F [florpyrauxifen-benzyl, 2-pyridinecarboxylic acid, 4-amino-3-chloro-6-(4-chloro-2-fluoro-3-methoxyphenyl)-5-fluoro-, phenylmethyl ester, reference compound]
LEPCH Obsd. plant response rating (0 to 100) [1, 28]: 0
LEPCH Obsd. plant response rating (0 to 100) [1, 29]: 0
CYPDI Obsd. plant response rating (0 to 100) [2, 28]: 80
CYPDI Obsd. plant response rating (0 to 100) [2, 29]: 85
MOOVA Obsd. plant response rating (0 to 100) [3, 28]: 90
MOOVA Obsd. plant response rating (0 to 100) [3, 29]: 100
ECHCG Obsd. plant response rating (0 to 100) [4, 28]: 0
ECHCG Obsd. plant response rating (0 to 100) [4, 29]: 0
HETLI Obsd. plant response rating (0 to 100) [5, 28]: 90
HETLI Obsd. plant response rating (0 to 100) [5, 29]: 100
ECHPH Obsd. plant response rating (0 to 100) [6, 28]: 0
ECHPH Obsd. plant response rating (0 to 100) [6, 29]: 0
ORYSA Obsd. plant response rating (0 to 100) ([7]; florpyrauxifen-benzyl 2 g a.i./ha alone, 14 d): 0
ORYSA Obsd. plant response rating (0 to 100) ([7]; florpyrauxifen-benzyl 4 g a.i./ha alone, 14 d): 0
